Measured values: US20100331315A1, “RHODANINES AND RELATED HETEROCYCLES AS KINASE INHIBITORS” (priority 2009, published 2010)
Like-named read-outs stand apart in the source and are kept apart here.

Assays:
SUM-149PT = test: Alamar Blue cell proliferation assay, SUM-149PT; format: cell-based; details: Homo sapiens, SUM149PT
Procedure: (§1) A representative cell-proliferation assay protocol using Alamar Blue dye (stored at 4° C., use 20 ul per well) is described hereafter.
(§2) a. Split and trypsinize cells.
(§3) b. Count cells using hemocytometer.
(§4) c. Plate 4,000-5,000 cells per well in 100 μl of medium and seed into a 96-well plate according to the following plate layout. Add cell culture medium only to wells B10 to B12. Wells B1 to B9 have cells but no compound added.
(§5) d. Add 100 μl of 2× drug dilution to each well in a concentration shown in the plate layout above. At the same time, add 100 μl of media into the control wells (wells B10 to B12). Total volume is 200 μl/well.
(§6) e. Incubate four (4) days at 37° C., 5% CO2 in a humidified incubator.
(§7) f. Add 20 μl Alamar Blue reagent to each well.
(§8) g. Incubate for four (4) hours at 37° C., 5% CO2 in a humidified incubator.
(§9) h. Record fluorescence at an excitation wavelength of 544 nm and emission wavelength of 590 nm using a microplate reader.
(§10) In the assays, cells are cultured with a test compound for approximately four days, the dye is then added to the cells and fluorescence of […] dye is detected after approximately four hours. Different types of cells can be utilized in the assays (e.g., HCT-116 human colorectal carcinoma cells, PC-3 human prostatic cancer cells and MiaPaca human pancreatic carcinoma cells).

recombinant human PIM2 = recombinant human PIM2 (Homo sapiens, UniProt Q9P1W9); test: PIM-2 assay (33P-ATP filter plate); format: biochemical; details: for inhibition at 2.5 µM: Table 6, read-out: PIM2: % inh @ 2.5 uM; for IC50: Table 5
Procedure: PIM-2 Assay Method: Test compounds dissolved and diluted in DMSO (2 μl) were added to a reaction mixture comprising 10 μl of 5× Reaction Buffer (40 mM MOPS pH 7.0, 5 mM EDTA), 10 μl of recombinant human PIM2 solution (4 ng PIM-2 dissolved in dilution buffer (20 mM MOPS pH 7.0; EDTA 1 mM; 5% Glycerol; 0.01% Brij 35; […]; […] 2-mercaptoethanol; 1 mg/ml BSA)) and 8 ul of water. Reactions were initiated by the addition of 10 ul of ATP Solution (49% (15 mM MgCl2; 75 uM ATP) 1% ([γ-^33P]ATP: Stock 1 mCi/1000; 3000Ci/mmol (Perkin Elmer)) and 10 ul of substrate peptide solution (RSRSSYPAGT, dissolved in water at a concentration of 1 mM), Reactions were maintained for 10 min at 30° C. The reactions were quenched with 100 ul of 0.75% Phosphoric acid, then transferred to and filtered through a Phosphocellulose filter plate (Millipore, MSPH-N6B-50). After washing each well 4 times with 0.75% Phosphoric acid, scintillation fluid (20 uL) was added to each well and the residual radioactivity was measured using a Wallac luminescence counter.

MDAMB453 = test: Alamar Blue cell proliferation assay, MDAMB453; format: cell-based; details: Homo sapiens
Procedure: as §1, §2, §3, §4, §5, §6, §7, §8, §9, §10

recombinant human CK2 = target: T1, recombinant human CK2 (Homo sapiens, UniProt P68400); test: CK2 assay (cell-free, 33P-ATP filter plate); format: biochemical
T1 construct: purchased Upstate
Procedure: Modulatory activity of compounds described herein was assessed in vitro in cell-free CK2 assays by the following method.
Test compounds in aqueous solution were added at a volume of 10 microliters, to a reaction mixture comprising 10 microliters Assay Dilution Buffer (ADB; 20 mM MOPS, pH 7.2, 25 mM beta-glycerolphosphate, 5 mM EGTA, 1 mM sodium orthovanadate and 1 mM dithiothreitol), 10 microliters of substrate peptide (RRRDDDSDDD, dissolved in ADB at a concentration of 1 mM), 10 microliters of recombinant human CK2 (25 ng dissolved in ADB; Upstate). Reactions were initiated by the addition of 10 microliters of ATP Solution (90% 75 mM MgCl2, 75 micromolar ATP dissolved in ADB; 10% [γ-^33P]ATP (stock 1 mCi/100 μl; 3000 Ci/mmol (Perkin Elmer) and maintained for 10 minutes at 30 degrees C. The reactions were quenched with 100 microliters of 0.75% phosphoric acid, then transferred to and filtered through a phosphocellulose filter plate (Millipore). After washing each well 5 times with 0.75% phosphoric acid, the plate was dried under vacuum for 5 min and, following the addition of 15 ul of scintillation fluid to each well, the residual radioactivity was measured using a Wallac luminescence counter.

BxPC3 = test: Alamar Blue cell proliferation assay, BxPC3; format: cell-based; details: Homo sapiens
Procedure: as §1, §2, §3, §4, §5, §6, §7, §8, §9, §10

[1] = test system: HCT-116 human colorectal carcinoma cells; test: Alamar Blue cell proliferation assay, HCT-116; format: cell-based; details: HCT-116, Table 1, read-out: AB: HCT-116 IC50
Procedure: as §1, §2, §3, §4, §5, §6, §7, §8, §9, §10

K-562 = test: Alamar Blue cell proliferation assay, K-562; format: cell-based; details: Homo sapiens, K562, K-562, Table 5, read-out: AB: K-562 IC50
Procedure: as §1, §2, §3, §4, §5, §6, §7, §8, §9, §10

MV-4-11 = test: Alamar Blue cell proliferation assay, MV-4-11; format: cell-based; details: Homo sapiens, MV4-11, MV-4-11, Table 5, read-out: AB: MV-4-11 IC50
Procedure: as §1, §2, §3, §4, §5, §6, §7, §8, §9, §10

recombinant PIM-1 = recombinant PIM-1 (Homo sapiens, UniProt P11309); test: PIM-1 assay (33P-ATP filter plate); format: biochemical; details: Table 5; read-out: PIM1: IC50
Procedure: The following procedure was used to assay the PIM-1 kinase activity of compounds of the invention. Other methods for assaying PIM-1 and other PIM kinases, as well as methods to assay for activity against the various kinases are known in the art.
In a final reaction volume of 50 ul, recombinant PIM-1 (1 ng) was incubated with 12 mM MOPS pH 7.0, 0.4 mM EDTA, glycerol 1%, brij 35 0.002%, 2-mercaptoethanol 0.02%, BSA 0.2 mg/ml, 100 uM KKRNRTLTK, 10 mM MgAcetate, 15 uM ATP, [γ-^33P-ATP] (specific activity approx. 500 cpm/pmol), DMSO 4% and test inhibitor compound at the required concentration. The reaction was initiated by the addition of the Magnesium ATP mixture. After 40 min incubation at 23° C., the reactions were quenched by the addition of 100 ul 0.75% Phosphoric acid, and the labeled peptide collected by filtration through a phosphocellulose filter plate. The plate was washed 4 times with 0.075% phosphoric acid (100 ul per well) and then, after the addition of scintillation fluid (20 ul per well), the counts were measured by a scintillation counter.

[2] = Table 6, read-out: AB: SUM-149PT IC50
[3] = MDA-MB-453, MDAMB453, Table 6, read-out: AB: MDAMB453 IC50
[4] = BXPC-3, BxPC3, Table 6, read-out: AB: BxPC3 IC50
[5] = Table 5, read-out: AB: SUM-149PT IC50
[6] = MDA-MB-453, MDAMB453, Table 5, read-out: AB: MDAMB453 IC50
[7] = BXPC-3, BxPC3, Table 5, read-out: AB: BxPC3 IC50

Sequence of recombinant human PIM2 (Q9P1W9 whole entry): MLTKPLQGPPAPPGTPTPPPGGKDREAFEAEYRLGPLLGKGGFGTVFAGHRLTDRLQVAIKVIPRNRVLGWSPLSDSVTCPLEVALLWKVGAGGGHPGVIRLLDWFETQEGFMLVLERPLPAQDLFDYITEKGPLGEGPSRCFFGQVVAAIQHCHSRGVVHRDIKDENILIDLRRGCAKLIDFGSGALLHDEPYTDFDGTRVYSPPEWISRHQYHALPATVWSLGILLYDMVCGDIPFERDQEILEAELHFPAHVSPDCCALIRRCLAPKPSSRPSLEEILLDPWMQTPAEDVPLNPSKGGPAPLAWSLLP
Sequence of recombinant PIM-1 (P11309 whole entry): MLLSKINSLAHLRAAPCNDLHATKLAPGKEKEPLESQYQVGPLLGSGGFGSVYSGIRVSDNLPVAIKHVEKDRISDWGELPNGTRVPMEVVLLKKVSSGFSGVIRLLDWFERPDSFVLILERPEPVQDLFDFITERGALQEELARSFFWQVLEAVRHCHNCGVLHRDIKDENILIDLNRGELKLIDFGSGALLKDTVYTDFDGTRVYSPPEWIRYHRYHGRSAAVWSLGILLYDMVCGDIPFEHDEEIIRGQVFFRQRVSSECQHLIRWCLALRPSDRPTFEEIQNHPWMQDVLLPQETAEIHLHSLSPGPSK
T1 sequence (P68400 whole entry): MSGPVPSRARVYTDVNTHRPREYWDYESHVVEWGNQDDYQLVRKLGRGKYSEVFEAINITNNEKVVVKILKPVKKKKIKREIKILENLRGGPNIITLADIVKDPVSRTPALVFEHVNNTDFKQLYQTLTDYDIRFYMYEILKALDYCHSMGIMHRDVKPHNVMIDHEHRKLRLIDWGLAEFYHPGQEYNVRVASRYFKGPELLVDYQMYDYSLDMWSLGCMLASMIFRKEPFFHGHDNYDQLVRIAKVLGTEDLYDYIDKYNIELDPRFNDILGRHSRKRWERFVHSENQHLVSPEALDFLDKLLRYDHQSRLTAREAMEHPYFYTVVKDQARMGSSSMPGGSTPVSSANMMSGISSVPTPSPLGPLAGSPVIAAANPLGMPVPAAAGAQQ
T1 sequence (P67870 whole entry partner): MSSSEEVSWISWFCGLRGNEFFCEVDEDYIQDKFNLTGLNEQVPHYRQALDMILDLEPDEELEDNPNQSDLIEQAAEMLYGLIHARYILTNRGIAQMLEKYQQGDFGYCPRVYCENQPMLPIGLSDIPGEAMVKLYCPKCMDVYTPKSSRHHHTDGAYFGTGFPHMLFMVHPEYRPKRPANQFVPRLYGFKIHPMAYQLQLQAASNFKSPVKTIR

inhibition at 2.5 µM (recombinant human PIM2) [%] | IC50 (MDAMB453; [3]) [µM] | IC50 (recombinant human CK2; Table 6) [µM] | IC50 (BxPC3; [4]) [µM] | IC50 [1] [µM] | IC50 (K-562) [µM] | IC50 (recombinant human PIM2) [µM] | IC50 (MDAMB453; [6]) [µM] | IC50 (MV-4-11) [µM] | IC50 (recombinant human CK2; Table 5) [µM] | IC50 (BxPC3; [7]) [µM] | IC50 (recombinant PIM-1) [µM] | SMILES | IC50 (SUM-149PT; [2]) [µM] | IC50 (SUM-149PT; [5]) [µM]
– | – | – | – | – | 4.3 | < 0.05 | 10 | > 10 | < 0.05 | 18.8 | – | O=C1NC(=O)/C(=C\c2ccc(F)c(-c3cncc(N4CCCN(C(=O)Nc5ccccc5)CC4)n3)c2)S1 | – | 6.15
– | – | – | – | – | 1.6 | < 0.05 | 2.69 | 3.11 | < 0.05 | 20 | – | O=C1NC(=O)/C(=C\c2ccc(F)c(-c3cncc(N4CCCN(C(=O)c5ccccc5F)CC4)n3)c2)S1 | – | 2.61
– | – | – | – | – | 3.65 | < 0.05 | 3.59 | 2.52 | < 0.05 | 18.9 | – | COC(=O)N1CCCN(c2cncc(-c3cc(/C=C4/SC(=O)NC4=O)ccc3F)n2)CC1 | – | 2.05
– | – | – | – | – | 9.37 | < 0.05 | 3.81 | 6.3 | < 0.05 | 24 | – | O=C1NC(=O)/C(=C\c2ccc(F)c(-c3cncc(N4CCCN(C(=O)Oc5ccccc5)CC4)n3)c2)S1 | – | 6.69
– | – | – | – | – | 2.57 | < 0.05 | 3.98 | 3.49 | < 0.05 | 24.9 | – | O=C1NC(=O)/C(=C\c2ccc(F)c(-c3cncc(N4CCCN(C(=O)OCc5ccccc5)CC4)n3)c2)S1 | – | 8.28
– | – | – | – | – | 3.58 | < 0.05 | 10.9 | 3.88 | < 0.05 | 22.7 | – | CCOC(=O)N1CCCN(c2cncc(-c3cc(/C=C4/SC(=O)NC4=O)ccc3F)n2)CC1 | – | 4.18
– | – | – | – | – | 0.321 | < 0.05 | 4.09 | 2.78 | < 0.05 | 23.1 | – | O=C1NC(=O)/C(=C\c2ccc(F)c(-c3cncc(N4CCCN(C(=O)C5CC5)CC4)n3)c2)S1 | – | 3.94

More lines, now with the values behind:

SMILES | inhibition at 2.5 µM (recombinant human PIM2) [%] | IC50 (MDAMB453; [3]) [µM] | IC50 (recombinant human CK2; Table 6) [µM] | IC50 (BxPC3; [4]) [µM] | IC50 [1] [µM] | IC50 (K-562) [µM] | IC50 (recombinant human PIM2) [µM] | IC50 (MDAMB453; [6]) [µM] | IC50 (MV-4-11) [µM] | IC50 (recombinant human CK2; Table 5) [µM] | IC50 (BxPC3; [7]) [µM] | IC50 (recombinant PIM-1) [µM] | IC50 (SUM-149PT; [2]) [µM] | IC50 (SUM-149PT; [5]) [µM]
O=C1NC(=O)/C(=C/c2cc(-c3cncc(N4CCCNCC4)n3)cs2)S1 | 99.9 | 27.7 | 0.00439 | > 30 | – | – | – | – | – | – | – | – | 25.2 | –
CN1C(=O)/C(=C/c2ccc(-c3cccc(C(=O)O)c3)o2)SC1=S | – | – | – | – | > 10 | – | – | – | – | – | – | – | – | –
CC(C)(C)C(=O)N1CCCN(c2cncc(-c3cc(/C=C4/SC(=O)NC4=O)ccc3F)n2)CC1 | – | – | – | – | – | 0.316 | < 0.05 | 0.318 | 0.374 | < 0.05 | 12.7 | – | – | 1.02
C[C@H](Nc1cncc(-c2cccc(/C=C3\SC(=O)NC3=O)c2)n1)C1CC1 | 99.9 | 7.21 | 0.00144 | 17.2 | – | – | – | – | – | – | – | – | 0.703 | –
Cc1ccc(-c2cncc(N3CCCN(C)CC3)n2)cc1/C=C1\SC(=O)NC1=O | – | – | – | – | – | 6.54 | 0.05 | 15.5 | 3.75 | 0.05 | 25.8 | < 0.05 | – | 8.7
C[C@H](Nc1cncc(-c2csc(/C=C3\SC(=O)NC3=O)c2)n1)C1CC1 | 99.4 | 19.2 | 0.024 | 16.7 | – | – | – | – | – | – | – | – | 8.72 | –
CC(C)NC(=O)N1CCCN(c2cncc(-c3cc(/C=C4/SC(=O)NC4=O)ccc3F)n2)CC1 | – | – | – | – | – | – | < 0.05 | 6.28 | 7.7 | < 0.05 | – | – | – | 1.56
CN1CCCN(c2cncc(-c3cc(/C=C4\SC(=O)NC4=O)ccc3Cl)n2)CC1 | – | – | – | – | – | > 30 | < 0.05 | 18.4 | 3.01 | 0.0921 | > 30 | < 0.05 | – | > 30
CN1CCCN(c2cncc(-c3cc(/C=C4\SC(=O)NC4=O)ccc3F)n2)CC1 | – | – | – | – | – | 0.267 | < 0.05 | 1.18 | 0.197 | < 0.05 | 6.71 | < 0.05 | – | 1.55
CN1CCCN(c2cncc(-c3cncc(/C=C4\SC(=O)NC4=O)c3)n2)CC1 | – | – | – | – | – | > 10 | < 0.05 | 28.3 | 9.35 | 0.0106 | > 30 | < 0.05 | – | > 30
CN1CCCN(c2cncc(-c3cc(/C=C4\SC(=S)NC4=O)ccc3F)n2)CC1 | – | – | – | – | – | 0.186 | 0.05 | 0.521 | 0.163 | < 0.05 | 2.38 | < 0.05 | – | 0.315
O=C(O)c1cccc(-c2ccc(/C=C3\SC(=S)N(Cc4ccccc4)C3=O)o2)c1 | – | – | – | – | > 10 | – | – | – | – | – | – | – | – | –
Cc1ccc(-c2cncc(N3CCCN(C)CC3)n2)cc1/C=C1\SC(=S)NC1=O | – | – | – | – | – | 9.7 | < 0.05 | 22.2 | 2.2 | < 0.05 | 16.3 | < 0.05 | – | 25.7
CC(C)(C)CC(=O)N1CCCN(c2cncc(-c3cc(/C=C4/SC(=O)NC4=O)ccc3F)n2)CC1 | – | – | – | – | – | 1.21 | < 0.05 | 2.76 | 3.23 | < 0.05 | 10.2 | – | – | 1.46
O=C1NC(=O)/C(=C\c2ccc(F)c(-c3cncc(N4CCCNCC4)n3)c2)S1 | – | – | – | – | – | 2.91 | < 0.05 | 1.24 | 1.02 | < 0.05 | 4.36 | < 0.05 | – | 2.35
